Laboratory results published in publication PMC4830539, “Chemical Inhibition of Histone Deacetylases 1 and 2 Induces Fetal Hemoglobin through Activation of GATA2” (PLoS ONE, 2016).

Assays:
[1] = tested on: histone acetylation at GATA2 regulatory regions; experiment: ChIP-QPCR of histone acetylation at GATA2 regulatory regions; assay type: cell-based, human; conditions: -1.8 kb GATA2 regulatory region, 1 μM
Description: Cells were fixed in 1% formaldehyde for 15 minutes at room temperature. Crosslinking reaction was extinguished by adding glycine to 125 mM. Cells were washed three times in PBS, 0.5% lgepal CA-630, 1 mM phenylmethanesulfonyl fluoride (PMSF). Cell pellets were snap frozen on dry ice and stored at -80°C.
For ChIP-QPCR experiments, chromatin (11 μg) from vehicle (n = 1) or ACY-957 (n = 1) treated cells was fragmented by sonication, then immunoprecipitated (n = 3, each) using antibodies against histone H3 lysine 9 acetylation (3 μg, ab10812, Abcam), histone H2B lysine 5 acetylation (6 μL, ab40886, Abcam), histone H3 lysine 27 acetylation (3 μg, ab4729, Abcam), or GATA2 (6 μg, SC-9008, Santa Cruz). Specific genomic regions within immunoprecipitated and input DNA was detected using SYBR green QPCR with the following primer pairs:
To investigate how HDAC1/2 inhibition drives GATA2 activation, we performed a series of chromatin immunoprecipitation (ChIP) experiments. BM cells were expanded in CS1, and then shifted to CS1 differentiation media in the presence of vehicle or 1 μM ACY-957 for several days, yielding erythroid progenitor cells with TFRC/GYPA differentiation profiles similar to those used for GeneChip experiments and unaffected by compound treatment (Fig 8A and 8B). […]

HBG mRNA = HBG mRNA (%) by QPCR in differentiating BM cells (CS1, CS2); assay type: cell-based, human
Description: CD34+ cells isolated from human bone marrow of healthy normal donors (Lonza, AllCells, or StemCell Technologies), referred to as BM cells throughout this work, were cultured using two distinct 2-phase culture systems. These systems have been described previously and are referred to as Culture System 1 (CS1) and Culture System 2 (CS2) throughout this work. CS1 expansion media is StemSpan SFEM (StemCell Technologies) supplemented with CC100 (StemCell Technologies), 100 U/mL penicillin and 100 μg/mL streptomycin. CC100 is a mix of Flt-3 ligand (FLT3LG), KIT ligand (KITLG), interleukin-3 (IL3), and interleukin-6 (IL6). CS1 differentiation media is StemSpan SFEM supplemented with 1 U/ml erythropoietin (EPO), 5 ng/mL IL3, 20 ng/mL KITLG, 2 μM dexamethasone, 1 μM beta-estradiol, 100 U/mL penicillin and 100 μg/mL streptomycin. CS2 expansion media is StemSpan SFEM supplemented with 1% glutamine, 40 μg/mL lipids (Sigma), 100 ng/mL KITLG, 10 ng/mL IL3, and 0.5 U/mL EPO. CS2 differentiation media is same as CS2 expansion media, except 3 U/mL EPO.
(§1) Globin mRNA was detected using quantitative real time PCR (QPCR). Total RNA was isolated using RNeasy Micro Kit (Qiagen) with on-column DNase digestion, converted into cDNA using the High Capacity RNA-to-cDNA Kit (Life Technologies), diluted 5-fold with water, and 1 μL used as a template for QPCR. The percent of each β-like globin transcript was determined using the absolute standard curve method. Briefly, DNA corresponding to the full length transcript for each globin isoform was cloned into […] plasmid (GenScript, Piscataway NJ). Each plasmid was validated against each QPCR probe to ensure specificity. Plasmids were pooled at equal molar concentration and a dilution series spanning 8-logs was utilized as the standard curve. Throughout this work, ‘HBG mRNA (%)’ and ‘percent HBG mRNA’ refers to the abundance of HBG mRNA expressed relative to the sum of the abundances of all β-like globin transcripts, i.e. [HBG/(HBB+HBD+HBG+HBE)]*100. In cases where the transcript of interest was compared against the housekeeping gene ACTB, the comparative Ct ([…]) method was utilized. Probes used for QPCR: HBB (Hs00747223_g1), HBD (Hs00426283_m1), HBG (Hs00361131_g1, detects both HBG1 and HBG2), HBE (Hs00362215_g1), GATA1 (Hs01085823_m1), GATA2 (Hs00231119_m1), KLF1 (Hs00610592_m1), MYB (Hs00920556_m1), SOX6 (Hs00264525_m1), BCL11A (Hs01093197_m1), and ACTB (Hs99999903_m1).
To evaluate the ability of ACY-957 to activate HBG, we utilized two distinct 2-phase culture systems, referred to as CS1 [24] and CS2 [21], to derive erythroid progenitors and erythroblasts from CD34+ human bone marrow cells (BM cells). […]

GATA2, GATA1, KLF1 mRNA = experiment: Gene expression of candidate HBG modulators by QPCR in CS1; assay type: cell-based, human; conditions: CS1, 1 μM
Description: as §1, with “(Hs99999903_m1). […]” for “(Hs99999903_m1).”

HDAC2 = HDAC2 (Homo sapiens, UniProt Q92769); experiment: Cellular HDAC2 inhibition (HDAC-Glo 2 Kit) in BM cells; assay type: cell-based; set-up: endogenous in cells; host or cells: primary human bone marrow (BM) cells expanded in CS1 media; conditions: CS1 expansion media 6 days, then 48 hours with compound, n = 6
HDAC2, sequence (Q92769 whole entry): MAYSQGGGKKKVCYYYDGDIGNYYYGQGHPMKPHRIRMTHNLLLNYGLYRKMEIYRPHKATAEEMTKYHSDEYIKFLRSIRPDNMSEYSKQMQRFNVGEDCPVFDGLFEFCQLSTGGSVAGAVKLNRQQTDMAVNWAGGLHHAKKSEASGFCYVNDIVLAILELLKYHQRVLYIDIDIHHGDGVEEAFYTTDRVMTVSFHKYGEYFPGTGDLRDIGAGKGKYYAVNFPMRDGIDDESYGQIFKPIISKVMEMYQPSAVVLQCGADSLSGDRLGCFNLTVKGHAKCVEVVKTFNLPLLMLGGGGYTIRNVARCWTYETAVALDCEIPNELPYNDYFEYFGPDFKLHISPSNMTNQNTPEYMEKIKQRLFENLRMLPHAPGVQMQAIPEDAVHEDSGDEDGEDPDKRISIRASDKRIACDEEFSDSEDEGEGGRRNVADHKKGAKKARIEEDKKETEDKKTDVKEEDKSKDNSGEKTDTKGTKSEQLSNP
Description: The HDAC-Glo 2 Kit (Promega) was used for in vivo HDAC2 inhibition assays [27, 28]. First, BM cells were expanded in CS1 for 6 days. Next, 25000 cells in 25 μL of CS1 expansion media was placed in a 384-well plate in the presence of compound. Cells were cultured for an additional 48 hours, followed by luminescence detection in the lytic format as described by the manufacturer’s protocol.

Structure (SMILES): Nc1ccc(-c2cccs2)cc1NC(=O)c1ccc2nc(N3CCNCC3)ccc2c1 [ACY-957]
- maximum increases in histone acetylation (H3K9ac, H2BK5ac, H3K27ac) [1]: 4- to 8 fold
- HBG mRNA (%) (HBG mRNA; CS1, day 5, 1 μM): 35%
- each β-like globin mRNA relative to ACTB (HBG mRNA; CS1 and CS2, 1 μM): significantly increased levels of HBE and HBG mRNA and decreased levels of HBD and HBB mRNA
- increase of HBG level over vehicle treated controls (HBG mRNA; CS1 and CS2, day 5, 1 μM): approximately 3.5 fold
- HBG mRNA (%) (HBG mRNA; CS2, day 5, 1 μM): 24%
- GATA1 and KLF1 mRNA (GATA2, GATA1, KLF1 mRNA; 4 days): unaffected
- GATA2 mRNA increase relative to control cells (GATA2, GATA1, KLF1 mRNA; day 4): 3.3 fold
- IC50 (HDAC2): 304 nM
